According to patent US12565490B2, “Inhibitors of Receptor Interacting Protein Kinase I for the treatment of disease” (Board of Regents, The University of Texas System, priority 2020, dated 2026):

test system: human monocytic cell line U937; experiment: Human U937 cellular necroptosis assay; format: cell-based; conditions: U-937; U937 cells stimulated with 25 ng/mL human TNFalpha and 25 μM z-VAD-FMK; 22 hr; viability by Cell Titer-Glo 2.0; read-out: hU937 IC50
Experimental: Human U937 Cellular Necroptosis Assay
The human monocytic cell line U937 (CRL-1593.2) may be purchased from ATCC. The cells are routinely maintained in RPMI-1640 Medium (Gibco, Catalog #11875-093) supplemented with 10% heat inactivated fetal bovine serum (Gibco, Catalog #16140-071), 100 units/mL penicillin and 100 μg/mL streptomycin (Gibco, Catalog #15140-122), in a humidified incubator (37° C., 5% CO2). For the assay, cells are resuspended in RPMI-1640 phenol red free Media (Gibco, Catalog #11835-030) supplemented with 10% fetal bovine serum (Sigma, Catalog #F2442), 100 units/mL penicillin and 100 ug/mL streptomycin. Cells are stimulated with 25 ng/mL human TNFalpha (Cell Sciences, Catalog #CSI15659B) and 25 μM z-VAD-FMK (R&D Systems, Catalog #FMK001) followed by seeding 5000 cells per well in a volume of 40 μL to a white, CulturPlate-384 (Perkin Elmer, Catalog #6007680). Stock solutions of the test compounds are prepared in 100% DMSO (Sigma, Catalog #D2650) and serially diluted 1:3 using 100% DMSO. Compounds are additionally diluted 1:40 in assay medium, and 10 μL/well was transferred to the plate. Following the compound addition, the plate is incubated at 37° C. and 5% CO2 for 22 hr. After 22 hr, viability is assessed with the addition of 20 μL of Cell Titer-Glo 2.0 (Promega, Catalog #G9243). The tissue culture plate is shaken on an orbital shaker at 300 RPM for 15 minutes at room temperature in the dark. Luminescence is measured using a PerkinElmer Envision™ plate reader. IC50 values are calculated using a four-parameter logistic curve fit using Genedata Screener software. Compounds disclosed herein are expected to have activity in this assay.

`Cc1cnc(C(=O)N[C@H]2COc3cccnc3N(C)C2=O)nc1-c1cccc(F)c1F` [Example 59, (S)-4-(2,3-difluorophenyl)-5-methyl-N-(5-methyl-4-oxo-2,3,4,5-tetrahydropyrido[3,2-b]-[1,4]oxazepin-3-yl)pyrimidine-2-carboxamide] and `Cc1cnc(C(=O)N[C@H]2COc3cccnc3N(C)C2=O)nc1-c1ccc(F)cc1F` [Example 60, (S)-4-(2,4-difluorophenyl)-5-methyl-N-(5-methyl-4-oxo-2,3,4,5-tetrahydropyrido[3,2-b]-[1,4]oxazepin-3-yl)pyrimidine-2-carboxamide] are within 1.5-fold of each other in IC50: 13.9 nM for the first, 16.2 nM for the second.

Compared with `Cc1ccc(-c2nc(C(=O)N[C@H]3COc4cccnc4N(C)C3=O)ncc2C)c(F)c1` [Example 61, (S)-4-(2-fluoro-4-methylphenyl)-5-methyl-N-(5-methyl-4-oxo-2,3,4,5-tetrahydropyrido[3,2-b]-[1,4]oxazepin-3-yl)pyrimidine-2-carboxamide], `Cc1ccc(-c2nc(C(=O)N[C@H]3COc4cccnc4N(C)C3=O)ncc2C)cc1F` [Example 62, (S)-4-(3-fluoro-4-methylphenyl)-5-methyl-N-(5-methyl-4-oxo-2,3,4,5-tetrahydropyrido[3,2-b]-[1,4]oxazepin-3-yl)pyrimidine-2-carboxamide] is 1.5-fold lower in IC50: 16.1 nM for the first, 10.4 nM for the second.

Going from `Cc1cc(F)ccc1-c1ccnc(C(=O)N[C@H]2COc3cc(F)cnc3N(C)C2=O)n1` [Example 63, (S)-4-(4-fluoro-2-methylphenyl)-N-(8-fluoro-5-methyl-4-oxo-2,3,4,5-tetrahydropyrido[3,2-b]-[1,4]oxazepin-3-yl)pyrimidine-2-carboxamide] to `Cc1cc(F)cc(F)c1-c1ccnc(C(=O)N[C@H]2COc3cc(F)cnc3N(C)C2=O)n1` [Example 64, (S)-4-(2,4-difluoro-6-methylphenyl)-N-(8-fluoro-5-methyl-4-oxo-2,3,4,5-tetrahydropyrido[3,2-b]-[1,4]oxazepin-3-yl)pyrimidine-2-carboxamide], the IC50 rises from 117 nM to 189 nM (1.6-fold).

Compared with `Cc1cccc(-c2ccnc(C(=O)N[C@H]3COc4cc(F)cnc4N(C)C3=O)n2)c1` [Example 65, (S)-N-(8-fluoro-5-methyl-4-oxo-2,3,4,5-tetrahydro-pyrido[3,2-b][1,4]oxazepin-3-yl)-4-(m-tolyl)pyrimidine-2-carboxamide], `Cc1cccc(-c2nc(C(=O)N[C@H]3COc4cc(F)cnc4N(C)C3=O)ncc2Cl)c1` [Example 83, (S)-5-chloro-N-(8-fluoro-5-methyl-4-oxo-2,3,4,5-tetrahydropyrido[3,2-b]-[1,4]oxazepin-3-yl)-4-(m-tolyl)-pyrimidine-2-carboxamide] is 12-fold lower in IC50: 177 nM for the first, 15.1 nM for the second.

Compared with `CN1C(=O)[C@@H](NC(=O)c2ncc(F)c(-c3ccc(F)cc3)n2)COc2cc(F)cnc21` [Example 66, (S)-5-fluoro-N-(8-fluoro-5-methyl-4-oxo-2,3,4,5-tetrahydropyrido[3,2-b]-[1,4]oxazepin-3-yl)-4-(4-fluorophenyl)pyrimidine-2-carboxamide], `CN1C(=O)[C@@H](NC(=O)c2ncc(Cl)c(-c3ccc(F)cc3)n2)COc2cc(F)cnc21` [Example 71, (S)-5-chloro-N-(8-fluoro-5-methyl-4-oxo-2,3,4,5-tetrahydropyrido[3,2-b]-[1,4]oxazepin-3-yl)-4-(4-fluorophenyl)pyrimidine-2-carboxamide] is 12-fold lower in IC50: 106 nM for the first, 8.83 nM for the second.

Going from `Cc1cc(F)ccc1-c1nc(C(=O)N[C@H]2COc3cc(F)cnc3N(C)C2=O)ncc1F` [Example 67, (S)-5-fluoro-4-(4-fluoro-2-methylphenyl)-N-(8-fluoro-5-methyl-4-oxo-2,3,4,5-tetrahydropyrido[3,2-b]-[1,4]oxazepin-3-yl)pyrimidine-2-carboxamide] to `CN1C(=O)[C@@H](NC(=O)c2ncc(Cl)c(-c3ccc(F)cc3F)n2)COc2cc(F)cnc21` [Example 73, (S)-5-chloro-4-(2,4-difluorophenyl)-N-(8-fluoro-5-methyl-4-oxo-2,3,4,5-tetrahydropyrido[3,2-b]-[1,4]oxazepin-3-yl)pyrimidine-2-carboxamide], the IC50 falls from 24.7 nM to 11.4 nM (2.2-fold). The second is the more potent here.

`CN1C(=O)[C@@H](NC(=O)c2ncc(Cl)c(-c3ccccc3)n2)COc2cc(F)cnc21` [Example 69, (S)-5-chloro-N-(8-fluoro-5-methyl-4-oxo-2,3,4,5-tetrahydropyrido[3,2-b]-[1,4]oxazepin-3-yl)-4-phenylpyrimidine-2-carboxamide] and `CN1C(=O)[C@@H](NC(=O)c2ncc(Cl)c(-c3cccc(F)c3)n2)COc2cc(F)cnc21` [Example 70, (S)-5-chloro-N-(8-fluoro-5-methyl-4-oxo-2,3,4,5-tetrahydropyrido[3,2-b]-[1,4]oxazepin-3-yl)-4-(3-fluorophenyl)pyrimidine-2-carboxamide] are within 1.5-fold of each other in IC50: 7.41 nM for the first, 9.94 nM for the second.

First: CN1C(=O)[C@@H](NC(=O)c2ncc(Cl)c(-c3cccc(F)c3F)n2)COc2cc(F)cnc21 [Example 72, (S)-5-chloro-4-(2,3-difluorophenyl)-N-(8-fluoro-5-methyl-4-oxo-2,3,4,5-tetrahydropyrido[3,2-b]-[1,4]oxazepin-3-yl)pyrimidine-2-carboxamide]
Second: CN1C(=O)[C@@H](NC(=O)c2ncc(Cl)c(-c3cc(F)ccc3F)n2)COc2cc(F)cnc21 [Example 74, (S)-5-chloro-4-(2,5-difluorophenyl)-N-(8-fluoro-5-methyl-4-oxo-2,3,4,5-tetrahydropyrido[3,2-b]-[1,4]oxazepin-3-yl)pyrimidine-2-carboxamide]
The IC50 of the first is 2.3-fold higher: 25.5 nM for the first, 11 nM for the second. The second is the more potent here.

`CN1C(=O)[C@@H](NC(=O)c2ncc(Cl)c(-c3ccc(F)c(F)c3)n2)COc2cc(F)cnc21` [Example 75, (S)-5-chloro-4-(3,4-difluorophenyl)-N-(8-fluoro-5-methyl-4-oxo-2,3,4,5-tetrahydropyrido[3,2-b]-[1,4]oxazepin-3-yl)pyrimidine-2-carboxamide] and `Cc1ccc(-c2nc(C(=O)N[C@H]3COc4cc(F)cnc4N(C)C3=O)ncc2Cl)cc1F` [Example 78, (S)-5-chloro-4-(3-fluoro-4-methylphenyl)-N-(8-fluoro-5-methyl-4-oxo-2,3,4,5-tetrahydropyrido[3,2-b]-[1,4]oxazepin-3-yl)pyrimidine-2-carboxamide] are within 1.5-fold of each other in IC50: 11.9 nM for the first, 8.3 nM for the second.

`CN1C(=O)[C@@H](NC(=O)c2ncc(Cl)c(-c3cc(F)cc(F)c3)n2)COc2cc(F)cnc21` [Example 76, (S)-5-chloro-4-(3,5-difluorophenyl)-N-(8-fluoro-5-methyl-4-oxo-2,3,4,5-tetrahydropyrido [3,2-b]-[1,4]oxazepin-3-yl)pyrimidine-2-carboxamide] and `Cc1cc(-c2nc(C(=O)N[C@H]3COc4cc(F)cnc4N(C)C3=O)ncc2Cl)ccc1F` [Example 79, (S)-5-chloro-4-(4-fluoro-3-methylphenyl)-N-(8-fluoro-5-methyl-4-oxo-2,3,4,5-tetrahydropyrido[3,2-b]-[1,4]oxazepin-3-yl)pyrimidine-2-carboxamide] are within 1.5-fold of each other in IC50: 16.5 nM for the first, 18.9 nM for the second.

Compared with `Cc1ccc(-c2nc(C(=O)N[C@H]3COc4cc(F)cnc4N(C)C3=O)ncc2Cl)c(F)c1` [Example 77, (S)-5-chloro-4-(2-fluoro-4-methylphenyl)-N-(8-fluoro-5-methyl-4-oxo-2,3,4,5-tetrahydropyrido[3,2-b]-[1,4]oxazepin-3-yl)pyrimidine-2-carboxamide], `CN1C(=O)[C@@H](NC(=O)c2ncc(Cl)c(-c3ccccc3Cl)n2)COc2cc(F)cnc21` [Example 80, (S)-5-chloro-4-(2-chlorophenyl)-N-(8-fluoro-5-methyl-4-oxo-2,3,4,5-tetrahydropyrido[3,2-b]-[1,4]oxazepin-3-yl)pyrimidine-2-carboxamide] is 1.7-fold higher in IC50: 9.14 nM for the first, 15.2 nM for the second. The first is the more potent here.

`CN1C(=O)[C@@H](NC(=O)c2ncc(Cl)c(-c3cccc(Cl)c3)n2)COc2cc(F)cnc21` [Example 81, (S)-5-chloro-4-(3-chlorophenyl)-N-(8-fluoro-5-methyl-4-oxo-2,3,4,5-tetrahydropyrido[3,2-b]-[1,4]oxazepin-3-yl)pyrimidine-2-carboxamide] and `CN1C(=O)[C@@H](NC(=O)c2ncc(Cl)c(-c3cccc(C#N)c3)n2)COc2cc(F)cnc21` [Example 84, (S)-5-chloro-4-(3-cyanophenyl)-N-(8-fluoro-5-methyl-4-oxo-2,3,4,5-tetrahydropyrido[3,2-b]-[1,4]oxazepin-3-yl)pyrimidine-2-carboxamide] are within 1.5-fold of each other in IC50: 29.6 nM for the first, 33.5 nM for the second.

First: CN1C(=O)[C@@H](NC(=O)c2ncc(Cl)c(-c3ccc(Cl)cc3)n2)COc2cc(F)cnc21 [Example 82, (S)-5-chloro-4-(4-chlorophenyl)-N-(8-fluoro-5-methyl-4-oxo-2,3,4,5-tetrahydropyrido[3,2-b]-[1,4]oxazepin-3-yl)pyrimidine-2-carboxamide]
Second: CN1C(=O)[C@@H](NC(=O)c2ncc(Cl)c(-c3ncccc3F)n2)COc2cc(F)cnc21 [Example 85, (S)-5-chloro-N-(8-fluoro-5-methyl-4-oxo-2,3,4,5-tetrahydropyrido[3,2-b]-[1,4]oxazepin-3-yl)-4-(3-fluoropyridin-2-yl)pyrimidine-2-carboxamide]
The IC50 of the first is 45-fold lower: 13.6 nM for the first, 611 nM for the second. The first is the more potent here.
